# Earlier results in publication PMC2574912 (Life sciences, 2008).
# What was measured:
# [1] = system: non-AT1, non-AT2 binding site in rat brain; details: sulfhydryl reducing agents, ref Karamyan and Speth, 2007
# [2] = system: AT-1 angiotensin receptor; details: presence of PCMB; ref Karamyan and Speth, 2007
# AT2 receptor = details: PCMB; ref Karamyan, Speth unpublished observations
smiles,measurement,setting,value
OCCS [β-mercaptoethanol],"Effect on binding of 125I-Ang II to the non-AT1, non-AT2 binding site",[1],inhibit the binding
"O=C(O)c1cc[c]([Hg][Cl])cc1 [PCMB, parachloromercuribenzoate]",Effect on AT1 receptor binding,[2],inactivated
same,Effect on AT2 receptor binding,AT2 receptor,not inhibited
O[C@@H](CS)[C@@H](O)CS (racemic) [dithiothreitol],"Effect on binding of 125I-Ang II to the non-AT1, non-AT2 binding site",[1],inhibit the binding
